Patent US20040120949A1, “Compositions and methods for treating cancer using cytotoxic CD44 antibody immunoconjugates and radiotherapy” (Boehringer Ingelheim International GmbH, priority 2002, published 2004)
Where “and” joins values, the source holds several entries; their conditions need not be identical. Equal values may be shown once.

How the values were obtained:
[1] = test system: cells in vitro; conditions: free drug; cited from earlier work
[2] = Biodistribution and tumor uptake in vivo
[3] = test system: human FaDu SCC; experiment: Tumor growth delay and local control of FaDu tumors in nude mice, drug alone or with fractionated irradiation; assay type: in vivo, NMRI (nu/nu) mice; conditions: for Growth delay to 5 times the starting volume (tν5) / Growth delay to 10 times the starting volume (tV10): median
Method: (§1) BIWI 1, BIWA 4 and phosphate buffered saline (PBS) were applied intravenously (i.v.) in one of the tail veins. BIWI 1 was applied in doses of 50 μg and 100 μg DM1/kg body weight (b.w.)/d. Control animals were treated either with BIWA 4 (antibody control, 7 mg/kg b. w./d) or PBS.
(§2) Animals: The experiments were performed using 7-14 week old male and female NMRI (nu/nu) mice from the specific pathogen-free animal breeding facility of the Experimental Center of the Medical Faculty of the University of Dresden. The animal facilities and the experiments were approved according to the German animal welfare regulations. The microbiological status of the animals was regularly checked by the veterinarians of the facility. The animal rooms provided day light plus a 12 h light-12 h dark electric cycle (light-on time 07.00 a.m.) and a constant temperature of 26° C. and relative humidity of 50-60%. The animals were fed a commercial laboratory animal diet and water ad libitum. To immunosuppress the nude mice further, they were whole-body irradiated 2 days before tumor transplantation with 4 Gy using 200 kV X-rays (0.5 mm Cu) at a dose rate of about 1 Gy/min.
Tumor: FaDu is an established human hypopharyngeal squamous cell carcinoma line, kept in high passage by the American Type Culture Collection (Rockville, Md.). In nude mice FaDu grows as an undifferentiated carcinoma with a volume doubling time (VDT) between 100 mm^3 and 400 mm^3 of about 4 days. […] For the experiments small tumor pieces were transplanted subcutaneously (s.c.) into the right hindleg of anaesthetised mice.
(§3) Combination of BIWI 1 with fractionated irradiation: Local irradiations were given under ambient conditions without anaesthesia to air breathing animals (200 kV X-rays, 0.5 mm Cu, at a dose rate of 1.1 Gy/min). Up to five animals were irradiated simultaneously in specially designed jigs. For the treatments, the mice were immobilised in a plastic tube fixed on a lucite plate. The tumor-bearing leg was held positioned in the irradiation field by a foot-holder distal to the tumor. Tumor volume at the start of irradiation were around 100 mm^3. Tumors were irradiated with 5 fractions of 4 Gy in 5 days. The animals were randomized over the experimental matrix in groups of 5, aiming for about 15 animals (range 14 to 15 animals) for each treatment group. Irradiation protocols were started every second day. Animals received either BIWI 1 (50 μg DM1/kg/d), BIWI 1 (100 μg DM1/kg/d), BIWA 4 (7 mg/kg/d) or PBS two hours after each irradiation for 5 consecutive days. The report includes data obtained from a total of 59 irradiated tumors. In addition, 57 unirradiated FaDu tumors were treated with BIWI 1 (50 μg/kg/d), BIWI 1 (100 μg/kg/d), BIWA 4 (7 mg/kg/d) or PBS for 5 consecutive days.
Determinations of tumor volume and tumor growth delay: Animals were observed until the mean diameter of the untreated or recurrent tumors exceeded 12-15 mm, until death or until day 120 after end of treatment. Animals that appeared to suffer were killed before reaching these endpoints. Tumor diameters were measured every second day. Tumor volumes were determined by the formula of a rotational ellipsoid π/6×a×b^2, where a is the longest and b is the perpendicular shorter tumor axis. Conversion of tumor volumes to tumor mass (mg) was performed by a calibration curve based on excision weights. Tumor growth delay was determined from individual growth curves as the time that a regrowing tumor needed to reach 5 and 10 times the start volume (tv5, tv10).
Statistics: Medians and 95% confidence intervals (CI) of the tumor growth delay were calculated according to Sachs (Angewandte Statistik, 7. Aufl., Springer 1992). Experimental groups were compared using the Mann-Whitney-U test and a commercial software package (SPSS for Windows 9.0, SPSS Inc., 1999).

[4] = test system: CD44v6; experiment: Antigen binding affinity of humanised VFF-18 versions; design: species or system human
[5] = Tolerability in tumor-bearing nude mice; assay type: in vivo
Method: as §1, §2, §3

[6] = test system: antigen-positive FaDu cells; experiment: In vitro binding to FaDu cells by FACS; conditions: on ice 1 hour, FITC-labeled anti-human IgG, read-out: apparent KD
Method: The binding of BIWA 4 antibody and BIWI 1 conjugate to antigen-positive FaDu cells was determined. Cells (1−2×10^−5) were incubated in 96-well plates with varying concentrations of antibody or conjugate on ice for 1 hour. The test article was washed from the plate and FITC-labeled anti-human IgG was added and the incubation on ice was continued in the dark for 1 hour. After washing, the cells were fixed with 1% paraformaldehyde and analyzed on a fluorescence activated cell sorter (FACS).

[7] = target: CD44v6 on antigen-positive FaDu cells (human) (UniProt P16070); experiment: flow cytometry (FACS) on antigen-positive FaDu cells, FITC-labeled anti-human IgG detection; apparent KD
[8] = BIWA 4 7 mg/kg/d + fractionated irradiation
[9] = BIWA 4 7 mg/kg/d i.v. x5 days, no irradiation
[10] = BIWA 4 7 mg/kg/d x5 days + fRT (5x4 Gy)
[11] = 50 μg DM1/kg b.w./d alone, no irradiation
[12] = 50 μg DM1/kg/d + fractionated irradiation
[13] = 50 ug DM1/kg/d i.v. x5 days, no irradiation
[14] = 50 ug DM1/kg/d x5 days + fRT (5x4 Gy)
[15] = 100 ug DM1/kg/d i.v. x5 days, no irradiation
[16] = 100 ug DM1/kg/d x5 days + fRT (5x4 Gy)

CD44v6, sequence (P16070 386-428 limits assumed): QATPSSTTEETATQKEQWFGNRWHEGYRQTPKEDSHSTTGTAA

COc1cc2cc(c1Cl)N(C)C(=O)C[C@H](OC(=O)[C@H](C)N(C)C(=O)CCS)[C@]1(C)O[C@H]1[C@H](C)[C@@H]1C[C@@](O)(NC(=O)O1)[C@H](OC)/C=C/C=C(\C)C2 [DM1, N^2′-deacetyl-N^2′-(3-mercapto-1-oxopropyl)-Maytansine]
concentration toxic to cells in vitro [1]: approximately 10^−10 M

BIWA 4: Humanised version of antibody VFF-18, CD44v6 specific; light chains SEQ ID NO:4, heavy chains SEQ ID NO:6
Biodistribution and tumor uptake in vivo [2]: very favorable biodistribution and tumor uptake in vivo | Local tumor control rate at day 120 [3, 8]: 0/14 | estimated dose modifying factor [3, 8]: 1.2 | Growth delay compared with irradiated controls ([3]; BIWA 4 7 mg/kg/d + irradiation 20 Gy in 5 fractions): slightly but significant longer growth delay | Tumor growth compared with control tumors treated with PBS ([3]; BIWA 4 7 mg/kg/d alone, no irradiation): did not alter tumor growth | Growth delay to 5 times the starting volume (tν5) [3, 9]: 10,8 d | Growth delay to 10 times the starting volume (tV10) [3, 9]: 16.0 days | Growth delay to 5 times the starting volume (tν5) [3, 10]: 30.5 days | Growth delay to 10 times the starting volume (tV10) [3, 10]: 40.0 days | Antigen binding affinity (comparative) [4]: significantly lower antigen binding affinity as its parent antibody VFF-18 | Toxicity observed after application ([5]; i.v. x5 days): No toxicity was observed | Body weight during the treatment ([5]; irradiated and unirradiated animals, versus PBS group): minor and temporary changes without significant differences | Kd [6]: 1 nM

BIWI 1
tv5 and tv10 compared with irradiated tumors which received PBS or BIWA 4 ([3]; 50 μg DM1/kg b.w./d + irradiation 20 Gy in 5 fractions): clear-cut longer | tv5 compared with controls [3, 11]: did not prolong | tv10 compared with controls [3, 11]: slightly but significant longer | Effect of combined treatment with fractionated irradiation (radiosensitizing efficacy) [3, 12]: supra-additive | Local tumor control rate at day 120 [3, 12]: 7 out of 15 | estimated dose modifying factor [3, 12]: 4.1 | Local tumor control rate at day 120 ([3]; 50 μg DM1/kg/d + fractionated irradiation, listed as BIWI1): 7/15 | Growth delay to 5 times the starting volume (tν5) [3, 13]: 13.5 days | Growth delay to 10 times the starting volume (tV10) [3, 13]: 26.0 days | Growth delay to 5 times the starting volume (tν5) [3, 14]: 107.5 days | Growth delay to 10 times the starting volume (tV10) [3, 14]: >120 days | tv5 and tv10 compared with irradiated tumors which received PBS or BIWA 4 ([3]; 100 μg DM1/kg b.w./d + irradiation 20 Gy in 5 fractions): significant longer | Tv5 and tv10 compared to controls ([3]; 100 μg DM1/kg b.w./d alone, no irradiation): substantially and significantly prolonged | estimated dose modifying factor ([3]; 100 μg DM1/kg/d + fractionated irradiation): > 4.5 | Local tumor control rate at day 120 ([3]; 100 μg DM1/kg/d + fractionated irradiation, 4 further controlled animals censored earlier): 6 out of 15 and 6/15 | Growth delay to 5 times the starting volume (tν5) [3, 15]: 27.5 days | Growth delay to 10 times the starting volume (tV10) [3, 15]: 33.5 days | Growth delay to 5 times the starting volume (tν5) [3, 16]: >120 days | Growth delay to 10 times the starting volume (tV10) [3, 16]: >120 days | estimated kill of clonogenic FaDu cells ([3]; 5x 100 μg DM1/kg/d alone): at least two logs | Toxicity observed after application ([5]; i.v. x5 days): No toxicity was observed | Tolerability ([5]; i.v. x5 days, irradiated and unirradiated animals): well tolerated | Body weight during the treatment ([5]; mouse, in vivo): minor and temporary changes without significant differences | Kd [6]: 1.8 nM

B1: BIWA 4 (antibody, human IgG1, kappa, V domains shown)
VH: EVQLVESGGGLVKPGGSLRLSCAASGFTFSSYDMSWVRQAPGKGLEWVSTISSGGSYTYYLDSIKGRFTISRDNAKNSLYLQMNSLRAEDTAVYYCARQGLDYWGRGTLVTVSS
VL: EIVLTQSPATLSLSPGERATLSCSASSSINYIYWYQQKPGQAPRLLIYLTSNLASGVPARFSGSGSGTDFTLTISSLEPEDFAVYYCLQWSSNPLTFGGGTKVEIKR
Kd [7]: 1 nM

B2: BIWI 1 (antibody, V domains shown)
VH: EVQLVESGGGLVKPGGSLRLSCAASGFTFSSYDMSWVRQAPGKGLEWVSTISSGGSYTYYLDSIKGRFTISRDNAKNSLYLQMNSLRAEDTAVYYCARQGLDYWGRGTLVTVSS
VL: EIVLTQSPATLSLSPGERATLSCSASSSINYIYWYQQKPGQAPRLLIYLTSNLASGVPARFSGSGSGTDFTLTISSLEPEDFAVYYCLQWSSNPLTFGGGTKVEIKR
modifications: maytansinoid DM1 linked by a disulfide bond through the SPP-derived thiopentanoate linker to amino functions of the antibody; DM1/MAb ratio 3.1 (average for the whole antibody; sites not stated)
Kd [7]: 1.8 nM
